Results published in patent US20230181614A1, “ADMINISTRATION OF CITICOLINE TO IMPROVE COGNITIVE PERFORMANCE, ATTENTIONAL PERFORMANCE, AND MOTOR FUNCTION” (KYOWA HAKKO BIO CO., LTD., priority 2014, published 2023).

Key:
[1] = test system: Healthy subjects, ages 13-18; assay: Positive and Negative Affect Scale for Children (PANAS-C); format: in vivo, human
Source text: Study participants were screened by telephone prior to study enrollment. Healthy subjects, ages 13-18, with no significant medical conditions and no history of co-morbid psychiatric disorder, current Axis I or II diagnosis, or previous participation in a pharmacotherapeutic trial, were selected. Use of any psychotropic medication or any previous head injury resulting in loss of consciousness for 5 or more minutes were used as exclusion criteria. While no participant met criteria for a neuropsychiatric disorder at enrollment, clinical assessments were still completed throughout the study to evaluate changes in mood state. In addition, self-reports of sleep habits, lifestyle, and exercise routines were also administered at baseline as well as at each study visit to assess changes in health habits during study participation. Following the completion of Visit 1 assessment, participants were given their 28-day supply of citicoline (250 mg or 500 mg) or placebo, which was randomly assigned. They were instructed to take one capsule a day every day for the next 28 days. Visit 2 occurred fourteen days after Visit 1. At Visit 2, the remaining study pills were counted and participant dosage calendars were checked to ensure compliance with the protocol. Additional neuropsychological measures and clinical assessments were administered during this visit. Participants returned for Visit 3 fourteen days later, on the 28th day of their study participation. The pill bottle and the dosage calendar were collected from each participant. Urine and blood were again obtained. Participants also participated in similar clinical and neuropsychological testing and clinical measures that were given during visit 1. The […] is a self-report questionnaire on which participants rate to what extent they are currently experiencing a variety of positive and negative emotions such as “excited” and “mad.” The PANAS was administered during each of the three visits to assess participant affect prior to taking the study drug as well as after taking the study drug over a period of 28 days.

[2] = test system: Healthy subjects, ages 13-18; assay: California Verbal Learning Test I and II (CVLT); format: in vivo, human; details: for CVLT I & II List A Long Delay V1, Mean / CVLT I & II List A Short Delay V1, Mean / CVLT I & II List A Trial 1 V1, Mean / CVLT I & II List A Trial 5 V1, Mean / CVLT I & II List A Trials 1-5 V1, Mean / CVLT I & II List B V1, Mean: Visit 1; for V3-V1 CVLT I & II Difference List A Long Delay, Mean / V3-V1 CVLT I & II Difference List A Short Delay, Mean / V3-V1 CVLT I & II Difference List A Trial 1, Mean / V3-V1 CVLT I & II Difference List A Trial 5, Mean / V3-V1 CVLT I & II Difference List A Trials 1-5, Mean / V3-V1 CVLT I & II Difference List B Trial 1, Mean: Visit difference score; for CVLT I & II List A Long Delay V3, Mean / CVLT I & II List A Short Delay V3, Mean / CVLT I & II List A Trial 1 V3, Mean / CVLT I & II List A Trial 5 V3, Mean / CVLT I & II List A Trials 1-5 V3, Mean / CVLT I & II List B V3, Mean: Visit 3
Source text: Study participants were screened by telephone prior to study enrollment. Healthy subjects, ages 13-18, with no significant medical conditions and no history of co-morbid psychiatric disorder, current Axis I or II diagnosis, or previous participation in a pharmacotherapeutic trial, were selected. Use of any psychotropic medication or any previous head injury resulting in loss of consciousness for 5 or more minutes were used as exclusion criteria. While no participant met criteria for a neuropsychiatric disorder at enrollment, clinical assessments were still completed throughout the study to evaluate changes in mood state. In addition, self-reports of sleep habits, lifestyle, and exercise routines were also administered at baseline as well as at each study visit to assess changes in health habits during study participation. Following the completion of Visit 1 assessment, participants were given their 28-day supply of citicoline (250 mg or 500 mg) or placebo, which was randomly assigned. They were instructed to take one capsule a day every day for the next 28 days. Visit 2 occurred fourteen days after Visit 1. At Visit 2, the remaining study pills were counted and participant dosage calendars were checked to ensure compliance with the protocol. Additional neuropsychological measures and clinical assessments were administered during this visit. Participants returned for Visit 3 fourteen days later, on the 28th day of their study participation. The pill bottle and the dosage calendar were collected from each participant. Urine and blood were again obtained. Participants also participated in similar clinical and neuropsychological testing and clinical measures that were given during visit 1. […] Subjects are asked to remember a 16-item word list, which is presented on five trials. After each trial, the subject is asked to recall all of the words that they can remember. A second list is then presented to provide an interference condition. The subject is then asked to recall the first word list. After a temporal delay, the subject is again asked to recall the first word list. Test results provide scores for assessing verbal learning, strength of memory following interfering tasks, proactive interference, accuracy of recognition memory and storage versus retrieval of newly learned information. The CVLT was administered at all three visits.

For `C[N+](C)(C)CCOP(=O)(O)OP(=O)([O-])OC[C@H]1O[C@@H](n2ccc(N)nc2=O)[C@H](O)[C@@H]1O` [citicoline, Cytidine 5′-diphosphocholine], the “PANAS-C Negative Score, Mean” value ([1]; 250 mg/day, V1 (baseline)) was 23.15, the “PANAS-C Positive Score, Mean” value ([1]; 250 mg/day, V1 (baseline)) was 45.74 and the “PANAS-C Negative Score, Mean” value ([1]; 250 mg/day, V3 (day 28)) was 19.81. The “PANAS-C Positive Score, Mean” value ([1]; 250 mg/day, V3 (day 28)) was 41.93, the “PANAS-C Negative Score, Mean” value ([1]; 250 mg/day, V3-V1) was -3.33 and the “PANAS-C Positive Score, Mean” value ([1]; 250 mg/day, V3-V1) was -3.81. The “PANAS-C Negative Score, Mean” value ([1]; 500 mg/day, V1 (baseline)) was 21.55, the “PANAS-C Positive Score, Mean” value ([1]; 500 mg/day, V1 (baseline)) was 43.30 and the “PANAS-C Negative Score, Mean” value ([1]; 500 mg/day, V3 (day 28)) was 18.00. The “PANAS-C Positive Score, Mean” value ([1]; 500 mg/day, V3 (day 28)) was 41.78, the “PANAS-C Negative Score, Mean” value ([1]; 500 mg/day, V3-V1) was -3.55 and the “PANAS-C Positive Score, Mean” value ([1]; 500 mg/day, V3-V1) was -1.52. The “PANAS-C positive emotional attributes, between groups” value ([1]; Placebo vs 500 mg/day, visit 3, p=0.39) was “No significant effect”, the “CVLT I & II List A Long Delay V1, Mean” value ([2]; 250 mg/day group) was 10.26 and the “CVLT I & II List A Short Delay V1, Mean” value ([2]; 250 mg/day group) was 10.56. The “CVLT I & II List A Trial 1 V1, Mean” value ([2]; 250 mg/day group) was 6.11, the “CVLT I & II List A Trial 5 V1, Mean” value ([2]; 250 mg/day group) was 12.33 and the “CVLT I & II List A Trials 1-5 V1, Mean” value ([2]; 250 mg/day group) was 50.52. For the same molecule, the “CVLT I & II List B V1, Mean” value ([2]; 250 mg/day group) was 5.78, the “V3-V1 CVLT I & II Difference List A Long Delay, Mean” value ([2]; 250 mg/day group) was 0.81 and the “V3-V1 CVLT I & II Difference List A Short Delay, Mean” value ([2]; 250 mg/day group) was 1.04. For the same molecule, the “V3-V1 CVLT I & II Difference List A Trial 1, Mean” value ([2]; 250 mg/day group) was 1.63, the “V3-V1 CVLT I & II Difference List A Trial 5, Mean” value ([2]; 250 mg/day group) was 0.52 and the “V3-V1 CVLT I & II Difference List A Trials 1-5, Mean” value ([2]; 250 mg/day group) was 3.11. For the same molecule, the “V3-V1 CVLT I & II Difference List B Trial 1, Mean” value ([2]; 250 mg/day group) was 0.48, the “CVLT I & II List A Long Delay V3, Mean” value ([2]; 250 mg/day group) was 11.07 and the “CVLT I & II List A Short Delay V3, Mean” value ([2]; 250 mg/day group) was 11.59. For the same molecule, the “CVLT I & II List A Trial 1 V3, Mean” value ([2]; 250 mg/day group) was 7.74, the “CVLT I & II List A Trial 5 V3, Mean” value ([2]; 250 mg/day group) was 12.85 and the “CVLT I & II List A Trials 1-5 V3, Mean” value ([2]; 250 mg/day group) was 53.63. The “CVLT I & II List B V3, Mean” value ([2]; 250 mg/day group) was 6.26, the “CVLT I & II List A Long Delay V1, Mean” value ([2]; 500 mg/day group) was 9.79 and the “CVLT I & II List A Short Delay V1, Mean” value ([2]; 500 mg/day group) was 10.25. The “CVLT I & II List A Trial 1 V1, Mean” value ([2]; 500 mg/day group) was 6.58, the “CVLT I & II List A Trial 5 V1, Mean” value ([2]; 500 mg/day group) was 11.83 and the “CVLT I & II List A Trials 1-5 V1, Mean” value ([2]; 500 mg/day group) was 49.04. For the same molecule, the “CVLT I & II List B V1, Mean” value ([2]; 500 mg/day group) was 6.67, the “V3-V1 CVLT I & II Difference List A Long Delay, Mean” value ([2]; 500 mg/day group) was 1.13 and the “V3-V1 CVLT I & II Difference List A Short Delay, Mean” value ([2]; 500 mg/day group) was 0.96. For the same molecule, the “V3-V1 CVLT I & II Difference List A Trial 1, Mean” value ([2]; 500 mg/day group) was 1.00, the “V3-V1 CVLT I & II Difference List A Trial 5, Mean” value ([2]; 500 mg/day group) was 0.88 and the “V3-V1 CVLT I & II Difference List A Trials 1-5, Mean” value ([2]; 500 mg/day group) was 3.75. For the same molecule, the “V3-V1 CVLT I & II Difference List B Trial 1, Mean” value ([2]; 500 mg/day group) was -0.33, the “CVLT I & II List A Long Delay V3, Mean” value ([2]; 500 mg/day group) was 10.92 and the “CVLT I & II List A Short Delay V3, Mean” value ([2]; 500 mg/day group) was 11.21. The “CVLT I & II List A Trial 1 V3, Mean” value ([2]; 500 mg/day group) was 7.58, the “CVLT I & II List A Trial 5 V3, Mean” value ([2]; 500 mg/day group) was 12.71 and the “CVLT I & II List A Trials 1-5 V3, Mean” value ([2]; 500 mg/day group) was 52.79. The “CVLT I & II List B V3, Mean” value ([2]; 500 mg/day group) was 6.33.
